# Key:
# Format in all cases: functional, organism-based
# Parameters in all cases: conc 20 uM
# [1] = tested on: Mycobacterium intracellulare subsp. chimaera; assay: (§1) Inhibition of mycobacterial growth using the resazurin microtitre cell viability assay (REMA), compounds at final concentration of 20 µM (2% v/v DMSO). Hits were classed as compounds that inhibited bacterial growth by 70% or more compared to drug-free controls.; conditions: NCTC13781
# [2] = tested on: Mycobacterium tuberculosis; assay: as §1; conditions: H37Rv
# [3] = tested on: Mycobacteroides abscessus; assay: as §1; conditions: ATCC19977
Substance,Survival [1],Survival [2],Survival [3]
MMV688469,82.8%,90.9%,87.3%
MMV011511,104%,88%,112%
MMV676600,90.1%,91.1%,125%
MMV676409,85.7%,19.2%,122%
MMV688775,1.46%,4.71%,15.1%
MMV676492,97.8%,83.1%,101%
MMV688508,-0.22%,7.31%,18.6%
MMV688766,104%,88.4%,111%
MMV084864,100%,84.2%,101%
MMV688776,100%,127%,115%
MMV020152,91.2%,78.2%,118%
MMV688756,2.59%,13.4%,50%
MMV001059,106%,89.4%,105%
MMV676260,97.1%,84.8%,108%
MMV007803,105%,97.5%,101%
MMV676411,98.2%,16.4%,101%
MMV008439,99.8%,106%,112%
MMV016838,91.7%,78.9%,109%
MMV687251,88.3%,5.28%,116%
MMV688417,106%,82.3%,104%
MMV690102,111%,106%,113%
MMV688991,90.1%,82.1%,98.3%
MMV045105,102%,107%,113%
MMV688889,89.4%,58.9%,105%
MMV688990,102%,98.5%,103%
MMV687798,1.47%,7.23%,11.5%
MMV687699,93.8%,53.6%,114%

Substance,Survival [1],Survival [2],Survival [3]
MMV688124,107%,94.7%,116%
MMV688891,113%,101%,109%
MMV024406,100%,89%,114%
MMV1088520,98.2%,102%,110%
MMV688854,111%,111%,114%
MMV688345,86.9%,86%,113%
MMV688763,99.1%,21.8%,122%
MMV676439,34.7%,91.7%,114%
MMV024397,98.2%,88.8%,118%
MMV688980,92%,99.6%,87.1%
MMV671636,85.9%,95.9%,112%
MMV022236,109%,109%,119%
MMV690103,110%,105%,117%
MMV020165,98.7%,82.1%,106%
MMV012074,88.4%,53.4%,110%
MMV676468,96.9%,10.5%,103%
MMV161996,108%,119%,103%
MMV023953,93.7%,100%,104%
MMV084603,81.6%,98.8%,112%
MMV020321,91.7%,90.7%,115%
MMV676406,105%,67.8%,111%
MMV188296,98%,95%,109%
MMV688553,91.3%,54%,105%
MMV023985,109%,85.1%,101%
MMV690027,104%,101%,111%
MMV272144,105%,85.8%,110%
MMV676048,94.4%,90.5%,114%

Substance,Survival [1],Survival [2],Survival [3]
MMV020512,109%,104%,116%
MMV030734,89.4%,82.6%,111%
MMV024114,106%,126%,121%
MMV020291,103%,90.7%,121%
MMV024195,94.1%,74.2%,103%
MMV495543,86.9%,85.3%,84.2%
MMV676377,77.7%,50.2%,108%
MMV054312,76.8%,46.8%,111%
MMV011229,94%,92.6%,97.3%
MMV688262,113%,8.6%,106%
MMV687801,31.5%,58.9%,114%
MMV689000,101%,89.8%,115%
MMV676204,101%,99.7%,107%
MMV022029,99.1%,90.8%,118%
MMV1110498,102%,97.9%,111%
MMV020517,94%,79.9%,123%
MMV676383,79.3%,1.2%,110%
MMV689060,109%,104%,119%
MMV676449,84.8%,90.2%,102%
MMV023969,92.8%,19.5%,96%
MMV688555,92.5%,46.8%,108%
MMV676520,85.8%,43.4%,100%
MMV659004,100%,6.84%,112%
MMV675996,94.3%,102%,94.2%
MMV676444,97.5%,56.3%,113%
MMV676431,98.6%,81.5%,115%
